For 17 compounds, IC50 and inhibition results are on record in patent publication US20080306044A1, “SPIROBENZOAZEPANES AS VASOPRESSIN ANTAGONISTS” (priority 2007, published 2008).

For assay [1], the target named is T1, human V1a receptor (Homo sapiens, UniProt P37288).
T1 construct: expressed in transfected cells
As to the kind of experiment: In-vitro binding assay (3H-arginine-8-vasopressin), V1a. As to conditions: for IC50: membrane containing human V1a receptor, 3H-arginine-8-vasopressin 0.65-0.75 nM; for inhibition at 0.2 µM: test concentration of 0.2 μM, read-out: V1a binding percent inhibition (in parentheses, where an IC50 value was not obtained). How it is done: (§1) Assay buffer is 50 mM Tris-Cl, 5 mM MgCl2, 0.1% BSA (pH 7.5) containing 5 μg/mL of aprotinin, leupeptin, pepstatin, 50 μg/mL bacitracin, and 1 mM Pefabloc (4-(2-aminoethyl)-benzenesulfonyl fluoride, hydrochloride manufactured by Roche Diagnostics Corporation, Indianapolis, Ind. and distributed by Boehringer Mannheim). H3 vasopressin is ^3H-arginine-8-vasopressin (NEN Life Sciences, Boston, Mass.; 68.5 Ci/mmol, final concentration in assay is 0.65-0.75 nM). Into the wells of a 96-well round bottom polypropylene plates are added buffer, test compound, membrane (containing human V1a or V2 receptor), and H3 vasopressin. The reaction plates are allowed to sit at room temperature for one hour. The samples are filtered through Unifilter GF/C plates (PerkinElmer Life Sciences, Boston, Mass.) presoaked in 0.3 polyethyleneimine. The plates are washed 5 times with cold physiological saline containing 0.05% Tween 20. After drying, the bottom of the filter plates are sealed and 0.025 mL of Microscint-20 (Packard Instrument Co, Meriden, Conn.) is added to each filter. The top of the plate is sealed, and the plate is counted. Non-specific binding is determined by the addition of 1.25 μM arginine-8-vasopressin in those wells.
(§2) The % inhibition for the test results was calculated according to the formula: […]
Where an IC50 value was not obtained, the percent inhibition values are shown in parentheses (*) and were obtained at a test concentration of 0.2 μM.

Assay [2] has as its target T2, human V2 receptor (Homo sapiens, UniProt P30518). As to the kind of experiment: In-vitro binding assay (3H-arginine-8-vasopressin), V2. The following applies: for IC50: membrane containing human V2 receptor, 3H-arginine-8-vasopressin 0.65-0.75 nM; for inhibition at 0.2 µM: test concentration of 0.2 μM, read-out: V2 binding percent inhibition (in parentheses, where an IC50 value was not obtained). How it is done: as §1, with “H3 vasopressin is ^3H-arginine-8-vasopressin (NEN Life Sciences, Boston, Mass.; 68.5 Ci/mmol, final concentration in assay is 0.65-0.75 nM).” left out, “counted.” for “counted. Non-specific binding is determined by the addition of 1.25 μM arginine-8-vasopressin in those wells.”
as §2

Assay [3] has as its target T1, human V1a receptor. As to the kind of experiment: cell-based. The protocol:
The V1a receptor is a G-protein coupled receptor, which upon activation triggers an increase in intracellular calcium mobilization. To evaluate compounds for their functional V1a receptor activity, HEK-293 cells were transfected with the human V1a receptor (V1a-HEK cells). HEK-293 cells were grown in DMEM (Dulbecco's modified Eagle Media) supplemented with 10% FBS and glutamine. HEK-cells were passed biweekly by trypsinization and seeded into 96 well plates at 33,000 cells per well. HEK-293 cells were transfected with human V1a receptor DNA using DMRIE-C reagent from Life Technologies (Carlsbad, Calif.). Stable lines were generated by selecting cells grown in culture media containing geneticin. After growing in Packard Clear-View black 96 well plates for 4-6 days, V1a-HEK cells were loaded with the calcium-sensitive fluorescence dye, FLUO-3 AM. Changes in intracellular calcium mobilization were measured by quantitating intracellular fluorescence using FLIPR (Fluorometric Imaging Plate Reader; Molecular Devices, Sunnyvale, Calif.). Test compounds were first added to the cells and the resulting changes in fluorescence measured to detect receptor agonistic activity. Five minutes later the cells were challenged with vasopressin to test compounds for their antagonistic activity. Receptor antagonists inhibit the ability of vasopressin to stimulate increases in intracellular fluorescence.

In assay [4] the target is T2, human V2 receptor. As to the kind of experiment: V2 vasopressin receptor functional activity (cAMP accumulation). It counts as cell-based. Also on record: expressed in transfected cells; host or cells: HEK-293. How it is done: The V2 receptor is also a G-protein coupled receptor which when activated induces an increase in cAMP turnover. Antagonism against the V2 receptor is determined by measuring cAMP accumulation in transfected HEK-293 cells expressing the human V-2 receptor (V2-HEK cells). Compounds are tested for their ability to block the stimulatory effects of vasopressin on cAMP accumulation. The cell content of cAMP is measured by radioimmunoassay using NEN flashplates.
For orientation: Cyclic AMP is a second messenger, typically raised through Gs and lowered through Gi signalling.

Setting [5] is: V1 (functional) IC50, V1a-HEK cells, inhibition of vasopressin-stimulated intracellular calcium mobilization.
Where [6] appears, read: V2-HEK cells, block of vasopressin-stimulated cAMP accumulation, read-out: V2 (functional) IC50.

T2 sequence (P30518 whole entry): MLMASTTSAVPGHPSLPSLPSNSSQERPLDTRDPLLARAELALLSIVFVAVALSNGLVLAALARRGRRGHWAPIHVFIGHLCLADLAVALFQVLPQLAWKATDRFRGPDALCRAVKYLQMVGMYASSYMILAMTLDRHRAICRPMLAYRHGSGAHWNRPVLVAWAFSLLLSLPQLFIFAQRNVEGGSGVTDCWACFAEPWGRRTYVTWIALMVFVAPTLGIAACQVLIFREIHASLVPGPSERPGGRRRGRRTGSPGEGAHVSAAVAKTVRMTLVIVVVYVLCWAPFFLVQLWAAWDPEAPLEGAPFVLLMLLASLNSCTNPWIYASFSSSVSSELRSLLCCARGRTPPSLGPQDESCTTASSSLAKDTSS
T1 sequence (P37288 whole entry): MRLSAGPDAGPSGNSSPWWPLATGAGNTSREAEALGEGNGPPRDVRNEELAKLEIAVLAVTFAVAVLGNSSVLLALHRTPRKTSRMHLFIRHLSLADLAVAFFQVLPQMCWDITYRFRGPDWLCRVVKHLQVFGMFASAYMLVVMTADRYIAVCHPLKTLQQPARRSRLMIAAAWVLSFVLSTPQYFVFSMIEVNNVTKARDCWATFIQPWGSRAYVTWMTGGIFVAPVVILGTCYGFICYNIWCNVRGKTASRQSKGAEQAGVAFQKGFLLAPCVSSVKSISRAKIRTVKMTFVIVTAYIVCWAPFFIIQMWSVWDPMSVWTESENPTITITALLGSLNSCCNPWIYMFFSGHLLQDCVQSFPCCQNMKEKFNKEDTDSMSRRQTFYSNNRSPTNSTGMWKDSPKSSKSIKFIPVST

Broadly, the IC50 is the concentration that inhibits the measured activity by half. With `COc1cc(C(=O)N2CCC3(CCCC3=NO)Cc3ccccc32)ccc1NC(=O)c1cccc(F)c1` (stereo not shown) [Cpd 51, N-[3-methoxy-4-(3-fluoro-phenylcarbonyl)amino-phenylcarbonyl]-2-hydroxyimino-spiro[cyclopentane-1,4′-benzo[b]azepane]], the IC50 turned out to be 16 nM on human V1a receptor [1] and 87 nM at human V2 receptor [2].

A word on the inhibition: it is the percentage by which the read-out fell short of the control. For `O=C(c1ccc(N2CCCC2)cc1)N1CCC2(CCCC2=NO)Cc2ccccc21` (stereo not shown) [Cpd 46, N-[4-pyrrolidin-1-yl-phenylcarbonyl]-2-hydroxyimino-spiro[cyclopentane-1,4′-benzo[b]azepane]], the figures for the inhibition at 0.2 µM on human V1a receptor [1] and on human V2 receptor [2] were 73% and 40%, respectively.

Take `Cc1ccn(-c2ccc(C(=O)N3CCC4(CCCC4=NO)Cc4ccccc43)cc2)n1` (stereo not shown) [Cpd 47, N-[4-(3-methyl-1H-pyrazol-1-yl)-phenylcarbonyl]-2-hydroxyimino-spiro[cyclopentane-1,4′-benzo[b]azepane]]: the inhibition at 0.2 µM at human V1a receptor [1] amounted to 86%; at human V2 receptor [2], 62%.

As for `O=C(Nc1ccc(C(=O)N2CCC3(CCCC3=NO)Cc3ccccc32)cn1)c1cc(F)ccc1Cl` (stereo not shown) [Cpd 10, N-[6-(2-chloro-5-fluoro-phenylcarbonyl)amino-pyridin-3-ylcarbonyl]-2-hydroxyimino-spiro[cyclopentane-1,4′-benzo[b]azepane]], the figures for the concentration for half-maximal inhibition (IC50) at human V1a receptor [1] and at human V2 receptor [2] were 60 nM and 70 nM, respectively.

On to `CON=C1CCCC12CCN(C(=O)c1ccc(NC(=O)c3cc(F)ccc3Cl)cc1)c1ccccc1C2` (stereo not shown) [Cpd 2, N-[4-(2-chloro-5-fluoro-phenylcarbonyl)amino-phenylcarbonyl]-2-methoxyimino-spiro[cyclopentane-1,4′-benzo[b]azepane]], for which the concentration for half-maximal inhibition (IC50) on human V1a receptor [1] amounted to 7 nM; on human V2 receptor [2] it was 44 nM.

In the case of `COc1cc(C(=O)N2CCC3(CCCC3N)Cc3ccccc32)ccc1NC(=O)c1cccc(F)c1` (stereo not shown) [Cpd 50, 2-amino-N-[3-methoxy-4-(3-fluoro-phenylcarbonyl)amino-phenylcarbonyl]-spiro[cyclopentane-1,4′-benzo[b]azepane]], the results for the inhibition at 0.2 µM at human V1a receptor [1] and at human V2 receptor [2] were 89% and 9%, respectively.

For the compound `COc1cc(C(=O)N2CCC3(CCCC3N)Cc3ccccc32)ccc1NC(=O)c1cc(F)ccc1Cl` (stereo not shown) [Cpd 8, 2-amino-N-[3-methoxy-4-(2-chloro-5-fluoro-phenylcarbonyl)amino-phenylcarbonyl]-spiro[cyclopentane-1,4′-benzo[b]azepane]], the IC50 turned out to be 16 nM at human V1a receptor [1] and 83 nM at human V2 receptor [2].

With `COc1cc(C(=O)N2CC[C@@]3(CCC(NS(N)(=O)=O)C3)Cc3ccccc32)ccc1NC(=O)c1cc(F)ccc1Cl` (stereo partly drawn) [Cpd 19, (1R)-3-aminosulfonylamino-N-[3-methoxy-4-(2-chloro-5-fluoro-phenylcarbonyl)amino-phenylcarbonyl]-spiro[cyclopentane-1,4′-benzo[b]azepane]], the 50% inhibitory concentration (IC50) on human V1a receptor [3] (setting [5]) is 100 nM; on human V2 receptor [4] (setting [6]) it was 120 nM.

On to `COc1cc(C(=O)N2CC[C@]3(C=C(C(=O)NS(N)(=O)=O)CC3)Cc3ccccc32)ccc1NC(=O)c1cc(F)ccc1Cl` [Cpd 13, (R)-3-aminosulfonylaminocarbonyl-N-[3-methoxy-4-(2-chloro-5-fluoro-phenylcarbonyl)amino-phenylcarbonyl]-spiro[cyclopent-2-ene-1,4′-benzo[b]azepane]], for which the IC50 turned out to be 27 nM at human V1a receptor [3] (V1a-HEK cells, inhibition of vasopressin-stimulated intracellular calcium mobilization, read-out: V1 (functional) IC50) and 11 nM at human V2 receptor [4] (setting [6]).

Consider `COc1cc(C(=O)N2CC[C@@]3(CCC(N4CCOCC4)C3)Cc3ccccc32)ccc1NC(=O)c1cc(F)ccc1Cl` (stereo partly drawn) [Cpd 18, (1R)—N-[3-methoxy-4-(2-chloro-5-fluoro-phenylcarbonyl)amino-phenylcarbonyl]-3-morpholin-4-yl-spiro[cyclopentane-1,4′-benzo[b]azepane]], for which the values for the concentration for half-maximal inhibition (IC50) at human V1a receptor [3] and at human V2 receptor [4] (setting [6]) were 240 nM and 1200 nM, respectively.

On to `COc1cc(C(=O)N2CC[C@@]3(CCC(=NO)C3)Cc3ccccc32)ccc1NC(=O)c1cc(F)ccc1Cl` [Cpd 15, (R)-N-[3-methoxy-4-(2-chloro-5-fluoro-phenylcarbonyl)amino-phenylcarbonyl]-3-hydroxyimino-spiro[cyclopentane-1,4′-benzo[b]azepane]], for which the figures for the IC50 on human V1a receptor [3] (setting [5]) and on human V2 receptor [4] were 90 nM and 400 nM, respectively.

With `CON=C1CC[C@@]2(CCN(C(=O)c3ccc(NC(=O)c4cc(F)ccc4Cl)c(OC)c3)c3ccccc3C2)C1` [Cpd 22, (R)—N-[3-methoxy-4-(2-chloro-5-fluoro-phenylcarbonyl)amino-phenylcarbonyl]-3-methoxyimino-spiro[cyclopentane-1,4′-benzo[b]azepane]], the values for the IC50 at human V1a receptor [3] (setting [5]) and on human V2 receptor [4] (setting [6]) were 290 nM and 740 nM, respectively.

For `COc1cc(C(=O)N2CCC3(CCCC3NS(N)(=O)=O)Cc3ccccc32)ccc1NC(=O)c1cc(F)ccc1Cl` (stereo not shown) [Cpd 33, 2-aminosulfonylamino-N-[3-methoxy-4-(2-chloro-5-fluoro-phenylcarbonyl)amino-phenylcarbonyl]-spiro[cyclopentane-1,4′-benzo[b]azepane]], the values for the IC50 on human V1a receptor [3] and on human V2 receptor [4] (setting [6]) were 330 nM and 31 nM, respectively.

Consider `CNC(=O)C=C1CC[C@@]2(CCN(C(=O)c3ccc(NC(=O)c4cc(F)ccc4Cl)c(OC)c3)c3ccccc3C2)C1` [Cpd 30, (R)—N-[3-methoxy-4-(2-chloro-5-fluoro-phenylcarbonyl)amino-phenylcarbonyl]-3-methylaminocarbonylmethylene-spiro[cyclopentane-1,4′-benzo[b]azepane]], for which the values for the half-inhibitory concentration (IC50) at human V1a receptor [3] (setting [5]) and on human V2 receptor [4] (setting [6]) were 210 nM and 90 nM, respectively.

Take `COc1cc(C(=O)N2CC[C@@]3(CCC(=CC(=O)NCCO)C3)Cc3ccccc32)ccc1NC(=O)c1cc(F)ccc1Cl` [Cpd 29, (R)—N-[3-methoxy-4-(2-chloro-5-fluoro-phenylcarbonyl)amino-phenylcarbonyl]-3-(2-hydroxy-ethyl)aminocarbonylmethylene-spiro[cyclopentane-1,4′-benzo[b]azepane]]: the IC50 on human V1a receptor [3] (setting [5]) was determined as 170 nM; at human V2 receptor [4] (setting [6]) it was 90 nM.

With `COc1cc(C(=O)N2CC[C@@]3(CCC(N)C3)Cc3ccccc32)ccc1NC(=O)c1cc(F)ccc1Cl` (stereo partly drawn) [Cpd 17, (1R)-3-amino-N-[3-methoxy-4-(2-chloro-5-fluoro-phenylcarbonyl)amino-phenylcarbonyl]-spiro[cyclopentane-1,4′-benzo[b]azepane]], the IC50 was determined as 730 nM at human V1a receptor [3] and 1100 nM at human V2 receptor [4] (setting [6]).

With `COc1cc(C(=O)N2CC[C@@]3(CCC(=CC(N)=O)C3)Cc3ccccc32)ccc1NC(=O)c1cc(F)ccc1Cl` [Cpd 32, (R)-3-aminocarbonylmethylene-N-[3-methoxy-4-(2-chloro-5-fluoro-phenylcarbonyl)amino-phenylcarbonyl]-spiro[cyclopentane-1,4′-benzo[b]azepane]], the IC50 is 170 nM at human V1a receptor [3] (setting [5]) and 34 nM on human V2 receptor [4] (setting [6]).
